In US20250059207A1, “6,6-FUSED HETEROCYCLIC COMPOUNDS AS METTL3 INHIBITORS” (858 Therapeutics, Inc., priority 2021, published 2025):

The compounds below were run on MOLM-13 cells (assay: Viability assay in MOLM-13 cells (CellTiter-Glo 2.0)). Conditions: Homo sapiens, MOLM-13, 72 h, read-out: MOLM-13 IC50 (cell viability).
Format: cell-based, human
Procedure: Effects of test compounds on the proliferation and viability of human AML cells was evaluated using the MOLM-13 cell line (AddexBio Technologies cat. no. C0003003). […] Test compounds or controls (Bortezomib or DMSO) diluted in 2% DMSO/media were added to each well for final concentrations of 0.2% DMSO and 0.1-1 μM Bortezomib. The cells were incubated for 72 hours at 37° C. and 5% CO2. At the end of the 72 hour incubation, plates were removed from the incubator, cooled to room temperature and equal volume of CellTiter-Glo 2.0 (Promega) added to each well. After mixing and incubating the plate at room temperature for 10 minutes the luminescence was read using a plate reader. […] Concentration-response-curves and IC50 values were generated using Collaborative Drug Discovery software.

Compound | IC50
O=c1c2cncc(-c3ccccc3)c2ccn1Cc1cn2cc(CNCc3ccc(Cl)cc3)ccc2n1 [Compound 84, 2-((6-(((4-chlorobenzyl)amino)methyl)imidazo[1,2-a]pyridin-2-yl)methyl)-5-phenyl-2,7-naphthyridin-1(2H)-one] | 1 to 10 µM
COCCNc1ccnc(NCc2ccc3nc(Cn4ccc5c(-c6ccccc6)cncc5c4=O)cn3c2)c1 [Compound 99, 2-((6-(((4-((2-methoxyethyl)amino)pyridin-2-yl)amino)methyl)imidazo[1,2-a]pyridin-2-yl)methyl)-5-phenyl-2,7-naphthyridin-1(2H)-one] | > 10 µM
O=c1c2cncc(-c3ccccc3)c2ccn1Cc1cn2cc(-c3cc(N4CCC4)ccn3)ccc2n1 [Compound 105, 2-((6-(4-(azetidin-1-yl)pyridin-2-yl)imidazo[1,2-a]pyridin-2-yl)methyl)-5-phenyl-2,7-naphthyridin-1(2H)-one] | 1 to 10 µM

Same assay, conditions: MOLM-13 human AML cells, 72 hours, CellTiter-Glo 2.0; read-out: MOLM-13 IC50 (cell viability)

Compound | IC50
CC1CCC(CNCc2ccc3nc(Cn4ccc5c(-c6ccccc6)cncc5c4=O)cn3c2)CC1 (stereo not drawn) [Compound 85, 2-((6-((((4-methylcyclohexyl)methyl)amino)methyl)imidazo[1,2-a]pyridin-2-yl)methyl)-5-phenyl-2,7-naphthyridin-1(2H)-one] | 1 to 10 µM
CC(=O)Nc1ccc(-c2cncc3c(=O)n(Cc4cn5cc(CNCC6CC(F)C6)ccc5n4)ccc23)cn1 (stereo not drawn) [Compound 87, N-(5-(7-((6-((((3-fluorocyclobutyl)methyl)amino)methyl)imidazo[1,2-a]pyridin-2-yl)methyl)-8-oxo-7,8-dihydro-2,7-naphthyridin-4-yl)pyridin-2-yl)acetamide] | 1 to 10 µM
O=c1c2cncc(N3CCC3)c2ccn1Cc1cn2cc(CNCC3CC(F)C3)ccc2n1 (stereo not drawn) [Compound 89, 5-(azetidin-1-yl)-2-((6-((((3-fluorocyclobutyl)methyl)-amino)methyl)imidazo[1,2-a]pyridin-2-yl)methyl)-2,7-naphthyridin-1(2H)-one] | 1 to 10 µM
CCNc1ccc2ccc(-c3ccc(Cn4ccc5c(-c6ccccc6)cncc5c4=O)cc3)cc2n1 [Compound 93, 2-(4-(2-(ethylamino)quinolin-7-yl)benzyl)-5-phenyl-2,7-naphthyridin-1(2H)-one] | 1 to 10 µM
CNc1ccc2ccc(-c3ccc(Cn4ccc5c(-c6ccccc6)cncc5c4=O)cc3)cc2n1 [Compound 94, 2-(4-(2-(methylamino)quinolin-7-yl)benzyl)-5-phenyl-2,7-naphthyridin-1(2H)-one] | 1 to 10 µM
O=c1c2cncc(-c3ccccc3)c2ccn1Cc1cn2cc(CNc3cc(NCCCCl)ccn3)ccc2n1 [Compound 96, 2-((6-(((4-((3-chloropropyl)amino)pyridin-2-yl)amino)methyl)imidazo [1,2-a]pyridin-2-yl)methyl)-5-phenyl-2,7-naphthyridin-1(2H)-one] | 1 to 10 µM
O=c1c2cncc(-c3ccccc3)c2ccn1Cc1cn2cc(CNc3ccccn3)ccc2n1 [Compound 100, 5-phenyl-2-((6-((pyridin-2-ylamino)methyl)imidazo[1,2-a]pyridin-2-yl)methyl)-2,7-naphthyridin-1(2H)-one] | 1 to 10 µM
COc1ccnc(NCc2ccc3nc(Cn4ccc5c(-c6ccccc6)cncc5c4=O)cn3c2)c1 [Compound 101, 2-((6-(((4-methoxypyndin-2-yl)amino)methyl)imidazo[1,2-a]pyridin-2-yl)methyl)-5-phenyl-2,7-naphthyridin-1(2H)-one] | 1 to 10 µM
O=c1c2cncc(-c3ccccc3)c2ccn1Cc1cn2cc(CNc3cc(N4CCOCC4)ccn3)ccc2n1 [Compound 102, 2-{[6-({[4-(morpholin-4-yl)pyridin-2-yl]amino}methyl)imidazo[1,2-a]pyridin-2-yl]methyl}-5-phenyl-1,2-dihydro-2,7-naphthyridin-1-one] | 1 to 10 µM
O=c1c2cncc(N3CC4(CCC4)C3)c2ccn1Cc1cn2cc(CNCC3CC(F)C3)ccc2n1 (stereo not drawn) [Compound 110, 2-((6-((((3-fluorocyclobutyl)methyl)amino)methyl)imidazo [1,2-a]pyridin-2-yl)methyl)-5-(2-azaspiro[3.3]heptan-2-yl)-2,7-naphthyridin-1(2H)-one] | 1 to 10 µM
CC1(C)CCN(Cc2ccc3nc(Cn4ccc5c(N6CC7(C6)CC(F)(F)C7)cncc5c4=O)cn3c2)CC1 [Compound 111, 5-{6,6-difluoro-2-azaspiro[3.3]heptan-2-yl}-2-({6-[(4,4-dimethylpiperidin-1-yl)methyl]imidazo[1,2-a]pyridin-2-yl}methyl)-1,2-dihydro-2,7-naphthyridin-1-one] | > 10 µM
CC1(C)CCN(Cc2ccc3nc(Cn4ccc5c(N6CCOCC6)cncc5c4=O)cn3c2)CC1 [Compound 113, 2-({6-[(4,4-dimethylpiperidin-1-yl)methyl]imidazo[1,2-a]pyridin-2-yl}methyl)-5-(morpholin-4-yl)-1,2-dihydro-2,7-naphthyridin-1-one] | 1 to 10 µM
CC1(C)CCN(Cc2ccc3nc(Cn4ccc5c(N6CC7(CCOCC7)C6)cncc5c4=O)cn3c2)CC1 [Compound 114, 2-({6-[(4,4-dimethylpiperidin-1-yl)methyl]imidazo[1,2-a]pyridin-2-yl}methyl)-5-{7-oxa-2-azaspiro[3.5]nonan-2-yl}-1,2-dihydro-2,7-naphthyridin-1-one] | 1 to 10 µM
CC1(C)CCN(Cc2ccc3nc(Cn4ccc5c(N6CC(N7CCOCC7)C6)cncc5c4=O)cn3c2)CC1 [Compound 118, 2-({6-[(4,4-dimethylpiperidin-1-yl)methyl]imidazo[1,2-a]pyridin-2-yl}methyl)-5-[3-(morpholin-4-yl)azetidin-1-yl]-1,2-dihydro-2,7-naphthyridin-1-one] | 1 to 10 µM
CC1(C)CCN(Cc2ccc3nc(Cn4ccc5c(N6CC7(CCNCC7)C6)cncc5c4=O)cn3c2)CC1 [Compound 119, 5-{2,7-diazaspiro[3.5]nonan-2-yl}-2-({6-[(4,4-dimethylpiperidin-1-yl)methyl]imidazo[1,2-a]pyridin-2-yl}methyl)-1,2-dihydro-2,7-naphthyridin-1-one] | 1 to 10 µM
CN1CCN(C2CN(c3cncc4c(=O)n(Cc5cn6cc(CN7CCC(C)(C)CC7)ccc6n5)ccc34)C2)CC1 [Compound 126, 2-({6-[(4,4-dimethylpiperidin-1-yl)methyl]imidazo[1,2-a]pyridin-2-yl}methyl)-5-[3-(4-methylpiperazin-1-yl)azetidin-1-yl]-1,2-dihydro-2,7-naphthyridin-1-one] | > 10 µM
O=c1c2cncc(N3CC4(CCOCC4)C3)c2ccn1Cc1cn2cc(CN3CCC4(CC3)CC4)ccc2n1 [Compound 127, 2-{[6-({6-azaspiro[2.5]octan-6-yl}methyl)imidazo[1,2-a]pyridin-2-yl]methyl}-5-{7-oxa-2-azaspiro[3.5]nonan-2-yl}-1,2-dihydro-2,7-naphthyridin-1-one] | 1 to 10 µM
O=c1c2cncc(N3CC4(CCOCC4)C3)c2ccn1Cc1cn2cc(CN3CC4(CCC4)C3)ccc2n1 [Compound 128, 2-{[6-({2-azaspiro[3.3]heptan-2-yl}methyl)imidazo[1,2-a]pyridin-2-yl]methyl}-5-{7-oxa-2-azaspiro[3.5]nonan-2-yl}-1,2-dihydro-2,7-naphthyridin-1-one] | 1 to 10 µM

Further lines, results first:

IC50 | Compound
1 to 10 µM | O=c1c2cncc(-c3ccccc3)c2ccn1Cc1cn2cc(CNC(CO)c3ccccc3)ccc2n1 (stereo not drawn) [Compound 82, 2-((6-(((2-hydroxy-1-phenylethyl)amino)methyl)imidazo[1,2-a]pyridin-2-yl)methyl)-5-phenyl-2,7-naphthyridin-1(2H)-one]
1 to 10 µM | Cc1ccc(CNCc2ccc3nc(Cn4ccc5c(-c6ccccc6)cncc5c4=O)cn3c2)cc1 [Compound 86, 2-((6-(((4-methylbenzyl)amino)methyl)imidazo[1,2-a]pyridin-2-yl)methyl)-5-phenyl-2,7-naphthyridin-1(2H)-one]
1 to 10 µM | O=c1c2cncc(C3CC3)c2ccn1Cc1cn2cc(CNCC3CCC3)ccc2n1 [Compound 88, 2-((6-(((cyclobutylmethyl)amino)methyl)imidazo[1,2-a]pyridin-2-yl)methyl)-5-cyclopropyl-2,7-naphthyridin-1(2 h)-one]
1 to 10 µM | CC1(C)CCN(Cc2ccc3nc(Cn4ccc5c(N6CCC(F)(F)CC6)cncc5c4=O)cn3c2)CC1 [Compound 112, 5-(4,4-difluoropiperidin-1-yl)-2-({6-[(4,4-dimethylpiperidin-1-yl)methyl]imidazo[1,2-a]pyridin-2-yl}methyl)-1,2-dihydro-2,7-naphthyridin-1-one]
> 10 µM | CC1(C)CCN(Cc2ccc3nc(Cn4ccc5c(N6CC7COCC7C6)cncc5c4=O)cn3c2)CC1 (stereo not drawn) [Compound 117, 2-({6-[(4,4-dimethylpiperidin-1-yl)methyl]imidazo[1,2-a]pyridin-2-yl}methyl)-5-{hexahydro-1H-furo[3,4-c]pyrrol-5-yl}-1,2-dihydro-2,7-naphthyridin-1-one]
> 10 µM | CC1(C)CCN(Cc2ccc3nc(Cn4ccc5c(-c6ccc(S(N)(=O)=O)cc6)cncc5c4=O)cn3c2)CC1 [Compound 123, 4-[7-({6-[(4,4-dimethylpiperidin-1-yl)methyl]imidazo[1,2-a]pyridin-2-yl}methyl)-8-oxo-7,8-dihydro-2,7-naphthyridin-4-yl]benzene-1-sulfonamide]
> 10 µM | CC1(C)CCN(Cc2ccc3nc(Cn4ccc5c(C#Cc6ccncc6)cncc5c4=O)cn3c2)CC1 [Compound 124, 2-((6-((4,4-dimethylpiperidin-1-yl)methyl)imidazo[1,2-a]pyridin-2-yl)methyl)-5-(pyridin-4-ylethynyl)-2,7-naphthyridin-1(2H)-one]
> 10 µM | CN(C)CC1CN(c2cncc3c(=O)n(Cc4cn5cc(CN6CCC(C)(C)CC6)ccc5n4)ccc23)C1 [Compound 125, 5-{3-[(dimethylamino)methyl]azetidin-1-yl}-2-({6-[(4,4-dimethylpiperidin-1-yl)methyl]imidazo[1,2-a]pyridin-2-yl}methyl)-1,2-dihydro-2,7-naphthyridin-1-one]
1 to 10 µM | O=c1c2cncc(N3CC4(CCOCC4)C3)c2ccn1Cc1cn2cc(CN3CCC4(CCC4)CC3)ccc2n1 [Compound 129, 2-((6-((7-azaspiro[3.5]nonan-7-yl)methyl)imidazo[1,2-a]pyridin-2-yl)methyl)-5-(7-oxa-2-azaspiro[3.5]nonan-2-yl)-2,7-naphthyridin-1(2H)-one]
